Assay [1] addresses TYK2 (Homo sapiens (Human), UniProt P29597). Nature of the assay: Tyk2 activity inhibition assay (radioactive kinase assay / Caliper assay). The assay is classed as biochemical. As to the method: Peptide substrate, [[…]], (20 μM) is prepared in reaction buffer (20 mM Hepes pH 7.5, 10 mM MgCl2, 1 mM EGTA, 0.02% Brij35, 0.02 mg/mL BSA, […], 2 mM DTT, 1% DMSO. TYK2 (Invitrogen) kinase is added, followed by compounds in DMSO. 33PATP is added to initiate the reaction in ATP at 10 μM. Kinase reaction is incubated for 120 min at room temp and reactions are spotted onto P81 ion exchange paper (Whatman #3698-915), and then washed extensively in 0.75% phosphoric acid, prior to reading the radioactivity counts. For JAK2 (Invitrogen) kinase assay the peptide substrate poly[Glu:Tyr](4:1), 0.2 mg/ml is used, in the reaction carried out the same as for TYK2.
(§1) The caliper machine employs an off chip mobility shift assay to detect phosphorylated peptide substrates from kinase assays, using microfluidics technology. The assays are carried out at ATP concentration equivalent to the ATP Km, and at 1 mM ATP. Compounds are serially diluted in DMSO then further diluted in assay buffer (25 mM HEPES, pH 7.5, 0.01% Brij-35, 0.01% Triton, 0.5 mM EGTA). 5 ul of diluted compound was added into wells first, then 10 ul of enzyme mix was added into wells, followed by 10 uL of substrate mix (peptide and ATP in 10 mM MgCl2) to start reaction. Reaction was incubated at 28° C. for 25 min and then added 25 ul stop buffer (100 mM HEPES, 0.015% Brij-35, 50 mM EDTA), followed by reading with Caliper. JAK2 at 1 nM final concentration and TYK2 at 9.75 nM are from Carna, and substrates used are ATP at 20 and 16 uM, respectively. JAK2 assay uses peptide 22 and TYK2 uses peptide 30 (Caliper), each at 3 uM.

Assay [2] has as its target JAK2 (Homo sapiens (Human), UniProt O60674). Nature of the assay: JAK2 activity inhibition assay (radioactive kinase assay / Caliper assay). The assay is classed as biochemical. As to conditions: read-out: JAK2 Ki. As to the method: as §1, with “The assays are carried out at ATP concentration equivalent to the ATP Km, and at 1 mM ATP.” left out, “Caliper.” for “Caliper. JAK2 at 1 nM final concentration and TYK2 at 9.75 nM are from Carna, and substrates used are ATP at 20 and 16 uM, respectively. JAK2 assay uses peptide 22 and TYK2 uses peptide 30 (Caliper), each at 3 uM.”

Chain of TYK2 (P29597 whole entry): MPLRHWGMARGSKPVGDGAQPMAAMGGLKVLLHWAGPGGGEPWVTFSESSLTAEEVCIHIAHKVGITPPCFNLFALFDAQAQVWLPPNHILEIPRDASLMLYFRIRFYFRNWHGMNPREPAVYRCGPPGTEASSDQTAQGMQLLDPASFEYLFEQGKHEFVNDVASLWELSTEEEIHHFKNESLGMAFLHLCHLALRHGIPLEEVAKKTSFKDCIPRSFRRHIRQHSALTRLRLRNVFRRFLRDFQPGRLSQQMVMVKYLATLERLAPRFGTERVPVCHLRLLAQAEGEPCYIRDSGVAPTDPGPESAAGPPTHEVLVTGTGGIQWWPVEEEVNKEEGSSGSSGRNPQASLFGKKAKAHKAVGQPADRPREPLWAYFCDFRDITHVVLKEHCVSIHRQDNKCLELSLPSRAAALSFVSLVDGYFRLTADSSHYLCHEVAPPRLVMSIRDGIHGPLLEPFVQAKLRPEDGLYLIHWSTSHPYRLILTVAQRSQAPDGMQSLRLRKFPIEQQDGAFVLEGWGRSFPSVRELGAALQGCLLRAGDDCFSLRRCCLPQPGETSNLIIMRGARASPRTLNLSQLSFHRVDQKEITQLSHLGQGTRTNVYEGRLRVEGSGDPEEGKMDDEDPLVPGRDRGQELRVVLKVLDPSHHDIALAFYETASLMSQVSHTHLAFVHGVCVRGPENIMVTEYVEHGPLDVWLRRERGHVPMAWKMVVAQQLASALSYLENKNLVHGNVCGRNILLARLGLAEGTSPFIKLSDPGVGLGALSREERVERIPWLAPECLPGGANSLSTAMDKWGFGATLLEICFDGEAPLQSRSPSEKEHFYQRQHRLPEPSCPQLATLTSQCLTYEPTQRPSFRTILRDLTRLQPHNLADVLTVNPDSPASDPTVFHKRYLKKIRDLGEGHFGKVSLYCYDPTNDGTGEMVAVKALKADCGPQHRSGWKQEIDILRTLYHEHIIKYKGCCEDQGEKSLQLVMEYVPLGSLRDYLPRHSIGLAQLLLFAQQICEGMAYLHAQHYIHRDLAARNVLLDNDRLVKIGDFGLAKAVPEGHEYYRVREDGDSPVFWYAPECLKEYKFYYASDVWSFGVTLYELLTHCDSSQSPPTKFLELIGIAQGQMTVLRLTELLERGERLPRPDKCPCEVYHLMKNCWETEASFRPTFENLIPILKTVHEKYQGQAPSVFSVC
Chain of JAK2 (O60674 whole entry): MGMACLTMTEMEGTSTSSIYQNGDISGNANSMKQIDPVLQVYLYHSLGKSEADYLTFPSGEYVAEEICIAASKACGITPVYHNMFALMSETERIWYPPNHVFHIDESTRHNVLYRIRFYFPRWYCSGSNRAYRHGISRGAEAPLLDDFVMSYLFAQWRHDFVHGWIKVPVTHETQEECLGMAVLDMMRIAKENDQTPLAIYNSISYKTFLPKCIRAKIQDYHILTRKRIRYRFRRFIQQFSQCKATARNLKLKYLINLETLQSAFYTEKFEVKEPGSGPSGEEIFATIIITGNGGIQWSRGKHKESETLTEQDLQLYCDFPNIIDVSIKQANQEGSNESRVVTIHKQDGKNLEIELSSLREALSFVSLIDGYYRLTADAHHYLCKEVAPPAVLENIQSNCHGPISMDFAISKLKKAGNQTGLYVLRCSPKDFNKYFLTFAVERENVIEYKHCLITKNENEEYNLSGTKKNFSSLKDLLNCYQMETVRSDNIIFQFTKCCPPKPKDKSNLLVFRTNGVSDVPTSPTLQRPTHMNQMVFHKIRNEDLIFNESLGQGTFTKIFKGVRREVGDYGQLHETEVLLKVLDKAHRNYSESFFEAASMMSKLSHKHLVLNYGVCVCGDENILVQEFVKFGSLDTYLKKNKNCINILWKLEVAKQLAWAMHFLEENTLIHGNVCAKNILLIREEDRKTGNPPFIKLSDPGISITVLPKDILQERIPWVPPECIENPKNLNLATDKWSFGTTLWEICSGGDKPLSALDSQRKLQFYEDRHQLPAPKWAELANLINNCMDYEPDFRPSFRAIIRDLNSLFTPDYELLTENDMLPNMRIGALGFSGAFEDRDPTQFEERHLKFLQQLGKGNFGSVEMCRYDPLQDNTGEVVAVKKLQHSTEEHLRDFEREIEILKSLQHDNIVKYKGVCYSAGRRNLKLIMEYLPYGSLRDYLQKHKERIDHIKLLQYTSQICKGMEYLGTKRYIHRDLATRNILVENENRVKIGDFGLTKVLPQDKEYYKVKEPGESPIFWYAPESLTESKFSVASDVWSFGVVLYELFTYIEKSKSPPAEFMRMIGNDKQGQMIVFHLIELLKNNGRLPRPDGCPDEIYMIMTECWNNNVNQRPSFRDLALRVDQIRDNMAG

One may read the Ki as the dissociation constant of the complex between target and ligand, obtained from inhibition or displacement. As for `CCOC(=O)Cc1ccc(Nc2nc(-c3ccccc3Cl)nc3c2C(=O)NC3)cc1` [Compound I-1, Ethyl 2-(4-((2-(2-chlorophenyl)-5-oxo-6,7-dihydro-5H-pyrrolo[3,4-d]pyrimidin-4-yl)amino)phenyl)acetate], the Ki in assay [1] was under 10 nM; in assay [2], 100 to 1000 nM.

As to `O=C(O)Cc1ccc(Nc2nc(-c3c(F)cccc3F)nc3c2C(=O)NC3)cc1` [Compound I-2, 2-(4-((2-(2,6-difluorophenyl)-5-oxo-6,7-dihydro-5H-pyrrolo[3,4-d]pyrimidin-4-yl)amino)phenyl)acetic Acid], the Ki is under 10 nM in assay [1] and over 1000 nM in assay [2].

As for `CCOC(=O)Cc1ccc(Nc2nc(-c3c(F)cccc3F)nc3c2C(=O)NC3)cc1` [Compound I-3, ethyl 2-(4-((2-(2,6-difluorophenyl)-5-oxo-6,7-dihydro-5H-pyrrolo[3,4-d]pyrimidin-4-yl)amino)phenyl)acetate], the results for the Ki in assay [1] and in assay [2] were under 10 nM and 100 to 1000 nM, respectively.

Regarding `CCOC(=O)Cc1ccc(Nc2nc(-c3c(F)cccc3Cl)nc3c2C(=O)NC3)cc1` [Compound I-4, ethyl 2-(4-((2-(2-chloro-6-fluorophenyl)-5-oxo-6,7-dihydro-5H-pyrrolo[3,4-d]pyrimidin-4-yl)amino)phenyl)acetate], the results for the Ki in assay [1] and in assay [2] were under 10 nM and 100 to 1000 nM, respectively.

As for `CCOC(=O)Cc1ccc(Nc2nc(-c3c(Cl)cccc3Cl)nc3c2C(=O)NC3)cc1` [Compound I-5, ethyl 2-(4-((2-(2,6-dichlorophenyl)-5-oxo-6,7-dihydro-5H-pyrrolo[3,4-d]pyrimidin-4-yl)amino)phenyl)acetate], the Ki in assay [1] is under 10 nM; in assay [2], 100 to 1000 nM.

As to `O=C(O)Cc1ccc(Nc2nc(-c3c(Cl)cccc3Cl)nc3c2C(=O)NC3)cc1` [Compound I-6, 2-(4-((2-(2,6-dichlorophenyl)-5-oxo-6,7-dihydro-5H-pyrrolo[3,4-d]pyrimidin-4-yl)amino)phenyl)acetic Acid], the Ki in assay [1] was under 10 nM; in assay [2] it was 100 to 1000 nM.

In the case of `O=C(O)Cc1ccc(Nc2nc(-c3ccccc3Cl)nc3c2C(=O)NC3)cc1` [Compound I-7, 2-(4-((2-(2-chlorophenyl)-5-oxo-6,7-dihydro-5H-pyrrolo[3,4-d]pyrimidin-4-yl)amino)phenyl)acetic Acid], the Ki was 10 to 100 nM in assay [1] and over 1000 nM in assay [2].

In the case of `NC(=O)Cc1ccc(Nc2nc(-c3ccccc3Cl)nc3c2C(=O)NC3)cc1` [Compound I-8, 2-(4-((2-(2-chlorophenyl)-5-oxo-6,7-dihydro-5H-pyrrolo[3,4-d]pyrimidin-4-yl)amino)phenyl)acetamide], the Ki in assay [1] is 10 to 100 nM; in assay [2] it was over 1000 nM.

`N#Cc1cc(Cl)c(-c2nc3c(c(Nc4ccc(CC(=O)O)cc4)n2)C(=O)NC3)c(Cl)c1` [Compound I-9, 2-(4-((2-(2,6-dichloro-4-cyanophenyl)-5-oxo-6,7-dihydro-5H-pyrrolo[3,4-d]pyrimidin-4-yl)amino)phenyl)acetic Acid]: the Ki in assay [1] is under 10 nM; in assay [2], 100 to 1000 nM.

Regarding `O=C(O)Cc1ccc(Nc2nc(-c3c(F)cccc3Cl)nc3c2C(=O)NC3)cc1` [Compound I-10, 2-(4-((2-(2-chloro-6-fluorophenyl)-5-oxo-6,7-dihydro-5H-pyrrolo[3,4-d]pyrimidin-4-yl)amino)phenyl)acetic Acid], the Ki in assay [1] was under 10 nM; in assay [2], 100 to 1000 nM.

As for `O=C(Cc1ccc(Nc2nc(-c3c(F)cccc3F)nc3c2C(=O)NC3)cc1)NC1CCNCC1` [Compound I-11, 2-(4-((2-(2,6-difluorophenyl)-5-oxo-6,7-dihydro-5H-pyrrolo[3,4-d]pyrimidin-4-yl)amino)phenyl)-N-(piperidin-4-yl)acetamide], the results for the Ki in assay [1] and in assay [2] were under 10 nM and 100 to 1000 nM, respectively.

In the case of `O=C(Cc1ccc(Nc2nc(-c3c(F)cccc3F)nc3c2C(=O)NC3)cc1)NCC1CCNCC1` [Compound I-13, 2-(4-((2-(2,6-difluorophenyl)-5-oxo-6,7-dihydro-5H-pyrrolo[3,4-d]pyrimidin-4-yl)amino)phenyl)-N-(piperidin-4-ylmethyl)acetamide], the values for the Ki in assay [1] and in assay [2] were under 10 nM and 100 to 1000 nM, respectively.

With `O=C(Cc1ccc(Nc2nc(-c3c(F)cccc3F)nc3c2C(=O)NC3)cc1)NC1CC2(CNC2)C1` [Compound I-14, 2-(4-((2-(2,6-difluorophenyl)-5-oxo-6,7-dihydro-5H-pyrrolo[3,4-d]pyrimidin-4-yl)amino)phenyl)-N-(2-azaspiro[3.3]heptan-6-yl)acetamide], the figures for the Ki in assay [1] and in assay [2] were under 10 nM and 100 to 1000 nM, respectively.

Consider `O=C1NCc2nc(-c3c(F)cccc3F)nc(Nc3ccc(CC(=O)N4CCC[C@@H]4CO)cc3)c21` [Compound I-15, (R)-2-(2,6-difluorophenyl)-4-((4-(2-(2-(hydroxymethyl)pyrrolidin-1-yl)-2-oxoethyl)phenyl)amino)-6,7-dihydro-5H-pyrrolo[3,4-d]pyrimidin-5-one], for which the values for the Ki in assay [1] and in assay [2] were under 10 nM and 100 to 1000 nM, respectively.

For `O=C(O)Cc1ccc(Nc2nc(-c3c(F)cccc3F)nc3c2C(=O)NC3)cn1` [Compound I-17], the figures for the Ki in assay [1] and in assay [2] were 100 to 1000 nM and over 1000 nM, respectively.

For the compound `COC(=O)Cc1ccc(Nc2nc(-c3c(F)cccc3F)nc3c2C(=O)NC3)cn1` [Compound I-18, methyl 2-(5-((2-(2,6-difluorophenyl)-5-oxo-6,7-dihydro-5H-pyrrolo[3,4-d]pyrimidin-4-yl)amino)pyridin-2-yl)acetate], the Ki in assay [1] is 100 to 1000 nM; in assay [2], over 1000 nM.

For `COC(=O)Cc1ncc(Nc2nc(-c3c(F)cccc3F)nc3c2C(=O)NC3)cn1` [Compound I-166, methyl 2-(5-((2-(2,6-difluorophenyl)-5-oxo-6,7-dihydro-5H-pyrrolo[3,4-d]pyrimidin-4-yl)amino)pyrimidin-2-yl)acetate], the Ki in assay [1] fell in the range of 100 to 1000 nM.

For the compound `O=C1NCc2nc(-c3c(F)cccc3F)nc(Nc3ccc(OC(F)(F)F)cc3)c21` [Compound I-184, 2-(2,6-difluorophenyl)-4-((4-(trifluoro-methoxy)phenyl)amino)-6,7-dihydro-5H-pyrrolo[3,4-d]pyrimidin-5-one], the Ki in assay [1] was in the range of 10 to 100 nM.

For the compound `O=C1NCc2nc(-c3c(F)cccc3F)nc(Nc3ccc(C4CCCCC4)cc3)c21` [Compound I-197, 4-((4-cyclohexylphenyl)amino)-2-(2,6-difluorophenyl)-6,7-dihydro-5H-pyrrolo[3,4-d]pyrimidin-5-one], the Ki in assay [1] was 100 to 1000 nM.

As to `O=C1NCc2nc(-c3c(F)cccc3F)nc(Nc3ccc(S(=O)(=O)C(F)(F)F)cc3)c21` [Compound I-236, 2-(2,6-difluorophenyl)-4-((4-((trifluoromethyl)sulfonyl)phenyl)-amino)-6,7-dihydro-5H-pyrrolo[3,4-d]pyrimidin-5-one], in assay [1], the Ki was 10 to 100 nM.

Consider `COc1ccc(Nc2cc(-c3c(F)cccc3F)nc3c2C(=O)N[C@H]3C)nc1` [Compound I-241, (S)-2-(2,6-difluorophenyl)-4-((5-methoxypyridin-2-yl)amino)-7-methyl-6,7-dihydro-5H-pyrrolo[3,4-b]pyridin-5-one], for which, in assay [1], the Ki is 100 to 1000 nM.

In the case of `Cc1ccc(Nc2nc(-c3c(F)cccc3F)nc3c2C(=O)NC3)cc1F` [Compound I-292, 2-(2,6-difluorophenyl)-4-((3-fluoro-4-methylphenyl)amino)-6,7-dihydro-5H-pyrrolo[3,4-d]pyrimidin-5-one], the Ki in assay [1] is 10 to 100 nM.

These data come from patent US10196390B2, “TYK2 inhibitors and uses thereof” (Nimbus Lakshmi, Inc., priority 2014, dated 2019).
